Patent US11051515B2, “3-acyl-benzamides and their use as herbicides” (Bayer Aktiengesellschaft, priority 2017, dated 2021)

Experiments:
[1] = system: PHBPU; assay: Post-emergence action against PHBPU; type: in vivo, Pharbitis purpurea; conditions: post-emergence, dosage 80 g/ha
How it was run: (§1)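 Weeds grown in sandy loam in greenhouse, treated at one-leaf stage (2–3 weeks after sowing) with WP or EC formulations sprayed as aqueous suspension/emulsion at 600 to […] water with 0.2% wetting agent. Visual rating after about 3 weeks versus untreated controls, as % herbicidal action (100% = plants dead, 0% = like control).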

[2] = system: VERPE; assay: Pre-emergence action against VERPE; type: in vivo, Veronica persica; conditions: Dosage 320 g/ha, pre-emergence
How it was run: (§2)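 Seeds sown in sandy loam in wood-fiber pots and covered with soil. Greenhouse growth; visual damage scored after 3 weeks versus untreated controls (100% = dead, 0% = like control).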

[3] = system: VERPE; assay: Post-emergence action against VERPE; type: in vivo, Veronica persica; conditions: dosage 80 g/ha
How it was run: as §1

[4] = system: AVEFA; assay: Post-emergence action against AVEFA; type: in vivo, Avena fatua; conditions: Avena fatua, 504 h; post-emergence, dosage 80 g/ha, visual assessment about 3 weeks after treatment vs untreated controls; read-out: Post-emergence action against AVEFA (herbicidal action in percent)
How it was run: as §1

[5] = system: SETVI; assay: Pre-emergence action against SETVI; type: in vivo, Setaria viridis; conditions: pre-emergence, dosage 320 g/ha, scored visually after 3 weeks vs untreated controls
How it was run: as §2

[6] = system: STEME; assay: Pre-emergence action against STEME; type: in vivo, Stellaria media; conditions: Dosage 320 g/ha, pre-emergence
How it was run: as §2

[7] = system: POLCO; assay: Post-emergence action against POLCO; type: in vivo, Polygonum convolvulus; conditions: Fallopia convolvulus, 504 h; post-emergence, dosage 80 g/ha
How it was run: as §1

[8] = system: ALOMY; assay: Pre-emergence action against ALOMY; type: in vivo, Alopecurus myosuroides; conditions: dosage 320 g/ha, pre-emergence, scored visually after 3 weeks vs untreated controls, 100% = plants have died, 0% = like control plants
How it was run: as §2

[9] = system: ABUTH; assay: Pre-emergence action against ABUTH; type: in vivo, Abutilon theophrasti; conditions: pre-emergence, dosage 320 g/ha, scored visually after 3 weeks vs untreated controls
How it was run: as §2

[10] = system: MATIN; assay: Pre-emergence action against MATIN; type: in vivo, Matricaria inodora; conditions: Dosage 320 g/ha, pre-emergence
How it was run: as §2

[11] = system: VIOTR; assay: Pre-emergence action against VIOTR; type: in vivo, Viola tricolor; conditions: Dosage 320 g/ha, pre-emergence
How it was run: as §2

[12] = system: ECHCG; assay: Post-emergence action against ECHCG; type: in vivo, Echinochloa crus-galli; conditions: post-emergence, dosage 80 g/ha, visual assessment about 3 weeks after treatment vs untreated controls
How it was run: as §1

[13] = system: POLCO; assay: Pre-emergence action against POLCO; type: in vivo, Polygonum convolvulus; conditions: Dosage 320 g/ha, pre-emergence
How it was run: as §2

[14] = system: MATIN; assay: Post-emergence action against MATIN; type: in vivo, Matricaria inodora; conditions: post-emergence, dosage 80 g/ha, visual assessment about 3 weeks after treatment vs untreated controls
How it was run: as §1

[15] = system: STEME; assay: Post-emergence action against STEME; type: in vivo, Stellaria media; conditions: post-emergence, dosage 80 g/ha
How it was run: as §1

[16] = system: CYPES; assay: Pre-emergence action against CYPES; type: in vivo, Cyperus esculentus; conditions: pre-emergence, dosage 320 g/ha, scored visually after 3 weeks vs untreated controls
How it was run: as §2

[17] = system: SETVI; assay: Post-emergence action against SETVI; type: in vivo, Setaria viridis; conditions: post-emergence, dosage 80 g/ha, visual assessment about 3 weeks after treatment vs untreated controls
How it was run: as §1

[18] = system: ECHCG; assay: Pre-emergence action against ECHCG; type: in vivo, Echinochloa crus-galli; conditions: pre-emergence, dosage 320 g/ha, scored visually after 3 weeks vs untreated controls
How it was run: as §2

[19] = system: CYPES; assay: Post-emergence action against CYPES; type: in vivo, Cyperus esculentus; conditions: post-emergence, dosage 80 g/ha, visual assessment about 3 weeks after treatment vs untreated controls
How it was run: as §1

[20] = system: VIOTR; assay: Post-emergence action against VIOTR; type: in vivo, Viola tricolor; conditions: post-emergence, dosage 80 g/ha
How it was run: as §1

[21] = system: LOLMU; assay: Pre-emergence action against LOLMU; type: in vivo, Lolium multiflorum; conditions: dosage 320 g/ha, scored visually after 3 weeks vs untreated controls
How it was run: as §2

[22] = system: LOLMU; assay: Post-emergence action against LOLMU; type: in vivo, Lolium multiflorum; conditions: dosage 80 g/ha, visual assessment about 3 weeks after treatment vs untreated controls
Experimental: Seeds of monocotyledonous and dicotyledonous weed and crop plants are laid out in sandy loam soil in wood-fiber pots, covered with soil and cultivated in a greenhouse under good growth conditions. 2 to 3 weeks after sowing, the test plants are treated at the one-leaf stage. The compounds of the invention, formulated in the form of wettable powders (WP) or as emulsion concentrates (EC), are then sprayed onto the green parts of the plants in the form of an aqueous suspension or emulsion at a water application rate equating to […], with addition of 0.2% wetting agent. After the test plants have been left to stand in the greenhouse under optimal growth conditions for about 3 weeks, the action of the preparations is assessed visually in comparison to untreated controls (herbicidal action in percent (%): 100% activity=the plants have died, 0% activity=like control plants). […] At the same time, inventive compounds leave Gramineae crops such as barley, wheat, rye, millet/Sorghum, corn or rice virtually undamaged when applied post-emergence, even at high active ingredient dosages. In addition, some substances are also harmless to dicotyledonous crops such as soya, cotton, oilseed rape, sugar beet or potatoes. Some of the compounds according to the invention have high selectivity and are therefore suitable for controlling unwanted vegetation in agricultural crops by the post-emergence method. The data of Tables B18 to B34 below illustrate, in an exemplary manner, the […] herbicidal action of the compounds according to the invention, the herbicidal activity being stated in percent.

[23] = system: ABUTH; assay: Post-emergence action against ABUTH; type: in vivo, Abutilon theophrasti; conditions: post-emergence, dosage 80 g/ha, visual assessment about 3 weeks after treatment vs untreated controls
How it was run: as §1

[24] = system: AVEFA; assay: Pre-emergence action against AVEFA; type: in vivo, Avena fatua; conditions: dosage 320 g/ha, scored visually after 3 weeks vs untreated controls
How it was run: as §2

[25] = system: AMARE; assay: Pre-emergence action against AMARE; type: in vivo, Amaranthus retroflexus; conditions: pre-emergence, dosage 320 g/ha, scored visually after 3 weeks vs untreated controls
How it was run: as §2

[26] = system: AMARE; assay: Post-emergence action against AMARE; type: in vivo, Amaranthus retroflexus; conditions: post-emergence, dosage 80 g/ha, visual assessment about 3 weeks after treatment vs untreated controls
How it was run: as §1

## CC(=O)c1c(C(F)(F)F)ccc(C(=O)Nc2nnnn2C)c1Br [1-195]
[1]; Ipomoea purpurea, 504 h
  pest or weed control at 80 g/ha: 90%
[2]; Veronica persica, 504 h
  pest or weed control at 320 g/ha: 100%
[3]; Veronica persica, 504 h
  pest or weed control at 80 g/ha: 80%
[4]
  pest or weed control at 80 g/ha: 80%
[5]; Setaria viridis, 504 h, read-out: SETVI (Table B8, pre-emergence herbicidal activity)
  pest or weed control at 320 g/ha: 100%
[6]; Stellaria media, 504 h
  pest or weed control at 320 g/ha: 90%
[7]
  pest or weed control at 80 g/ha: 90%
[8]; Alopecurus myosuroides, 504 h, read-out: Pre-emergence action against ALOMY (herbicidal activity in percent)
  pest or weed control at 320 g/ha: 90%
[9]; Abutilon theophrasti, 504 h, read-out: Pre-emergence action against ABUTH (herbicidal activity)
  pest or weed control at 320 g/ha: 100%
[10]; Tripleurospermum inodorum, 504 h
  pest or weed control at 320 g/ha: 100%
[11]; Viola tricolor, 504 h
  pest or weed control at 320 g/ha: 100%
[12]; Echinochloa crus-galli, 504 h, read-out: Post-emergence action against ECHCG (herbicidal action in percent)
  pest or weed control at 80 g/ha: 90%
[13]; Fallopia convolvulus, 504 h
  pest or weed control at 320 g/ha: 80%
[14]; Tripleurospermum inodorum, 504 h, read-out: Post-emergence action against MATIN (herbicidal action in percent)
  pest or weed control at 80 g/ha: 90%
[15]; Stellaria media, 504 h
  pest or weed control at 80 g/ha: 100%
[16]; Cyperus esculentus, 504 h, read-out: Pre-emergence action against CYPES (herbicidal activity)
  pest or weed control at 320 g/ha: 100%
[17]; Setaria viridis, 504 h, read-out: Post-emergence action against SETVI (herbicidal action in percent)
  pest or weed control at 80 g/ha: 90%
[18]; Echinochloa crus-galli, 504 h, read-out: Pre-emergence action against ECHCG (herbicidal activity)
  pest or weed control at 320 g/ha: 100%
[19]; Cyperus esculentus, 504 h, read-out: Post-emergence action against CYPES (herbicidal action in percent)
  pest or weed control at 80 g/ha: 80%
[20]; Viola tricolor, 504 h
  pest or weed control at 80 g/ha: 100%
[21]; Lolium multiflorum, 504 h, read-out: Pre-emergence action against LOLMU (herbicidal activity)
  pest or weed control at 320 g/ha: 90%
[22]; Lolium multiflorum, 504 h, read-out: Post-emergence action against LOLMU (herbicidal action in percent)
  pest or weed control at 80 g/ha: 90%
[23]; Abutilon theophrasti, 504 h, read-out: Post-emergence action against ABUTH (herbicidal action in percent)
  pest or weed control at 80 g/ha: 80%
[24]; Avena fatua, 504 h, read-out: Pre-emergence action against AVEFA (herbicidal activity)
  pest or weed control at 320 g/ha: 100%
[25]; Amaranthus retroflexus, 504 h, read-out: Pre-emergence action against AMARE (herbicidal activity)
  pest or weed control at 320 g/ha: 100%

## CCn1nnnc1NC(=O)c1ccc(C(F)(F)F)c(C(C)=O)c1C [2-14]
[1]
  Post-emergence action against PHBPU: 90
[2]
  Pre-emergence action against VERPE: 100%
[3]
  Post-emergence action against VERPE: 80
[5]
  SETVI (Table B8, pre-emergence herbicidal activity): 100%
[6]
  Pre-emergence action against STEME: 100%
[8]
  Pre-emergence action against ALOMY (herbicidal activity in percent): 80%
[9]
  Pre-emergence action against ABUTH (herbicidal activity): 100%
[10]
  Pre-emergence action against MATIN: 100%
[11]
  Pre-emergence action against VIOTR: 100%
[12]
  Post-emergence action against ECHCG (herbicidal action in percent): 100%
[13]
  Pre-emergence action against POLCO: 80%
[14]
  Post-emergence action against MATIN (herbicidal action in percent): 100%
[15]
  Post-emergence action against STEME: 100
[16]
  Pre-emergence action against CYPES (herbicidal activity): 90%
[17]
  Post-emergence action against SETVI (herbicidal action in percent): 90%
[26]
  Post-emergence action against AMARE (herbicidal action in percent): 100%
[18]
  Pre-emergence action against ECHCG (herbicidal activity): 100%
[19]
  Post-emergence action against CYPES (herbicidal action in percent): 90%
[20]
  Post-emergence action against VIOTR: 100
[21]
  Pre-emergence action against LOLMU (herbicidal activity): 80%
[22]
  Post-emergence action against LOLMU (herbicidal action in percent): 80%
[23]
  Post-emergence action against ABUTH (herbicidal action in percent): 100%
[24]
  Pre-emergence action against AVEFA (herbicidal activity): 90%
[25]
  Pre-emergence action against AMARE (herbicidal activity): 100%
